Data taken from US20100138947A1, “Method for Producing Stem Cells or Stel Cell-Like Cells from Mammalian Embryos” (priority 2005, published 2010).

Legend:
[1] = test system: Bovine D7.5 embryos at the blastocyst stage; test: Culture of crushed whole bovine blastocysts on MEF feeder layer with 5′-azacytidine (primary and passaged outgrowths); assay type: cell-based
Method: Bovine D7.5 embryos at the blastocyst stage were crushed and depressed into mouse embryonic feeder (MEF) layers, using fine-tipped glass micropipettes or Ultra-fine needle insulin syringe, and cultured in alpha-MEM medium in presence of bFGF, hEGF, ITS, hrLIF, 2-beta-ME, Glutamax, NEAA and 20% FCS. On the same day or on the following day the media was replaced with fresh media containing (treated group) or not containing (untreated group) 5 μM 5′-azacytidine. The media in each group was changed every 3 days.
After seven to nine days, non-treated and treated “squashed” whole embryos developed morphologically distinguishable primary embryonal outgrowths.
These cell colonies reached confluence in 14-21 days, depending on the number of pieces that were placed in the dish. The growing colonies which developed into confluent monolayers expressed marker of pluripotency, such as Oct4.

[2] = test system: mouse pre-implantation embryos (129sv x OG2 Oct4-EGFP); test: Isolation of ES-like cells from mouse morula/blastocysts pre-treated with 5-aza-cytidine (Oct4-EGFP reporter); assay type: cell-based; settings: 1 μM for 24 h pre-treatment
Method: Pre-pubertal (5-6 week old) 129sv females were super-ovulated using a routine protocol (1 IU PMSG and HCG injected i.p. 48h apart) before mating with OG2 males. […] The OG2 males, used as studs for mating, were C57/B16 strain and transgenic for an Oct4-EGFP construct. All pluripotent cells from these mice express GFP and this property was exploited in this study with GFP being used as a fluorescent marker to facilitate the identification of ESCs once derived. Zygotes were collected from the oviduct of humanely killed female mice. Cumulus cells were removed from zygotes by treatment with Hyaluronidase (300 IU/ml) in KSOM medium (Chemicon). The zygotes were carefully washed to remove hyaluronidase and transferred to a fresh dish with culture drops in a 37° C. incubator and allowed to develop to the morula/blastocyst stage. Treatment of Morula/Blastocyst with 1 μM of 5-aza-cytidine. Morula/blastocysts were cultured in the KSOM culture drops supplemented with 1 μM 5-aza-cytidine for 24 hr. F1 (CBA/C57) MEF's were used as a feeder layer to facilitate attachment of embryos and subsequent isolation and support of ESCs. MEF's were inactivated by treatment with mitomycin C (10 μg/ml) for 2.5 hr in the 37° C. incubator and plated at the rate of 3×10^5 cells/ml per 6 cm dish. […]

Nc1ncn([C@@H]2O[C@H](CO)[C@@H](O)[C@H]2O)c(=O)n1 [5′-azacytidine, 5-azacytidine]
Cell composition/morphology of primary embryonal outgrowth (treated outgrowth, TRO) ([1]; 5 μM, after seven to nine days of culture, untreated outgrowths contained pluripotent, trophoblast and primitive endoderm cells): consisting only of cells with morphology, characteristic of bovine ES-like cells | Expression of markers of pluripotency Oct4, Rex1 and SSEA-1 in TRO outgrowths ([1]; 5 μM, in control outgrowths only the PC part expressed the markers): all the cells expressed these markers | Diameter of TRO outgrowths ([1]; 5 μM, over the next 9-12 days, without any changes in morphology): about 2 cm | Same effects on primary and passaged cultures at reduced concentration ([1]; concentration reduced to below 2.5 μM): not observed | Time for passaged colonies to reach confluence ([1]; passaged TRO in the presence of 5′-azacytidine, depends on number of pieces in the dish): 14 to 21 days | Colony formation of passaged TRO outgrowths ([1]; primary TRO cultured 14-21 days, split into 600-800 μm pieces, passaged onto fresh feeder layer, cultured in the presence of 5′-azacytidine): able to form colonies of cells with uniform morphology, characteristic of bovine ES-like cells | Expression of GFP transgene under control of Oct4 in putative ESCs ([2]; then 0.1 μM in modified ESC medium): expressed a GFP transgene | Formation of ESC-like colonies from embryonal explants ([2]; then 0.1 μM in modified ESC medium on feeder layer, 8-10 days of culture): colonies of cells resembling ESCs were observed
